Source: patent US20240075004A1, “VERY-LONG-CHAIN POLYUNSATURATED FATTY ACIDS, ELOVANOID HYDROXYLATED DERIVATIVES, AND METHODS OF USE” (The Board of Supervisors of Louisiana State University and …, priority 2020, published 2024)

Experiments:
[1] = test system: IL-6, IL-1β, IL-8/CXCL8, CCL2/MCP-1, CXCL1/KC/GRO, VEGF, ICAM1(CD54), IL-10; experiment: Sandwich ELISA of cytokines and chemokines in HNEpC challenged with stressors; format: cell-based, human; details: allergens
Text: • Lipopolysaccharide (LPS) from Escherichia coli serotype 0111:B4 (Catalog #L4391) were obtained from Sigma-Aldrich. LPS is the principal component of Gram-negative bacteria that activates the innate immune system through its recognition by Toll-like receptor 4 (TLR4). This leads to a signaling cascade that ultimately results in the activation of NF-κB and the production of proinflammatory cytokines. LPS we used for our experiments is a preparation of smooth (S)-form LPS purified from the Gram-negative E. coli 0111:B4 that was used at 30 μg/mL to challenge HNEpC. • Polyinosinic-polycytidylic acid (abbreviated as poly(I:C) or poly(rI):poly(rC)) is a synthetic analog of double-stranded viral RNA (dsRNA), a molecular pattern associated with viral infection such as loss of epithelial integrity, increased production of mucus and inflammatory cytokines. Poly(I:C), a TLR3 agonist activates the antiviral pattern recognition receptors TLR3, RIG-I/MDA5 and PKR, thereby inducing signaling via multiple inflammatory pathways, including NF-κB and IRF. High Molecular Weight Poly(I:C) comprises long strands of inosine poly(I) homopolymer annealed to strands of cytidine poly(C) homopolymer. The average size of Poly(I:C) HMW is from 1.5 kb to 8 kb. […]

[2] = test system: autophagy, UPR, MMP, senescence and inflammation genes in HNEpC; experiment: HNEpC challenged with HDM: gene expression; format: cell-based, human; details: 500 nM; HDM 30 μg/ml
Method: HDM triggered multiple signaling in human nasal epithelial cells. HNEpC challenged with HDM (D. farinae+D. pteronyssinus) (30 μg/ml) induces the expression of several genes related with autophagy (ATG3, ATG5, ATG7, BECLIN-1, and P62), unfolded protein response (UPR) (ATF6, CHOP, and IRE1) and matrix metalloproteinases (MMPs) (MMP8, MMP2, MMP9, MMP3, MMP12, TIMP1, and TIMP2). HDM stressors also induce the expression of senescence (P21, P16, P27, and P53) and inflammation genes (IL-1a, IL-6, and IL-10) on HNEpC. […] (*p<0.0001).

Structure (SMILES): CC/C=C\C[C@H](O)\C=C/C=C/C=C/[C@H](O)C/C=C\C/C=C\CCCCCCCCCCCCCCC(=O)O [ELV-N-34]
- allergen-triggered production of inflammatory cytokines, chemokines, ICAM1 and induction of autophagy and SASP [1]: attenuated
- expression of MMP genes (MMP8, MMP2, MMP9, MMP3, MMP12, TIMP1, TIMP2) [2]: inhibits these effects
- expression of inflammation / senescence-associated cytokine genes [2]: inhibits these effects
- expression of senescence genes (P21, P16, P27; except P53) [2]: inhibits these effects
